pEC50: −log10 of the molar value. Read-outs that look alike come from different tables or passages of the source.
Experiments:
CHRF288-11 = test: Secondary dose-response HTS, Cell Titer Glo; type: cell-based, human; settings: for pEC50: Homo sapiens
CMS [1] = test: Secondary dose-response HTS, Cell Titer Glo; type: cell-based, human
CMK [2] = test: Secondary dose-response HTS, Cell Titer Glo; type: cell-based, human; settings: CMK
ML2 = test: Secondary dose-response HTS, Cell Titer Glo; type: cell-based, human; settings: ML-2
M07e = test: Secondary dose-response HTS, Cell Titer Glo; type: cell-based, human
U937 [3] = test: Secondary dose-response HTS, Cell Titer Glo; type: cell-based, human
MV4-11 [4] = test: Secondary dose-response HTS, Cell Titer Glo; type: cell-based, human; settings: MV4-11; for pEC50: Homo sapiens
MOLM-13 = test: Secondary dose-response HTS, Cell Titer Glo; type: cell-based, human; settings: Homo sapiens; secondary high-throughput screen; MOLM-13; read-out: average effective concentration, MOLM-13
MV4-11 [5] = test: cells; set-up: species or system AML cell lines (8); Secondary HTS, 10-point dose-response in triplicate, Cell Titer Glo viability, four-parameter fit EC50; settings: Homo sapiens, MV4-11, 72 h, read-out: MV4-11
CMK [6] = test: cells; set-up: species or system AML cell lines (8); Secondary HTS, 10-point dose-response in triplicate, Cell Titer Glo viability, four-parameter fit EC50; settings: Homo sapiens, CMK, 72 h, read-out: CMK
U937 [7] = test: cells; set-up: species or system AML cell lines (8); Secondary HTS, 10-point dose-response in triplicate, Cell Titer Glo viability, four-parameter fit EC50; settings: Homo sapiens, U-937, 72 h, read-out: U937
CMS [8] = test: cells; set-up: species or system AML cell lines (8); Secondary HTS, 10-point dose-response in triplicate, Cell Titer Glo viability, four-parameter fit EC50; settings: 72 h, read-out: CMS
[9] = HTS, secondary high-throughput screen, CHRF288-11, read-out: average effective concentration, CHRF288-11
[10] = Homo sapiens, HTS, secondary high-throughput screen, CMS, read-out: average effective concentration, CMS
[11] = Homo sapiens, secondary high-throughput screen, read-out: average effective concentration, ML-2
[12] = Homo sapiens, M-07e, secondary high-throughput screen, M07e, read-out: average effective concentration, M07e
[13] = Homo sapiens, U-937, secondary high-throughput screen, U937, read-out: average effective concentration, U937
[14] = secondary high-throughput screen, CHRF288-11
[15] = secondary high-throughput screen, CMS
[16] = secondary high-throughput screen
[17] = secondary high-throughput screen, […]
[18] = secondary high-throughput screen, U937
[19] = secondary high-throughput screen, M07e
[20] = Homo sapiens, M-07e, secondary high-throughput screen, […], read-out: average effective concentration, M07e
[21] = secondary high-throughput screen, read-out: average effective concentration, ML-2

Compound	average effective concentration, CHRF288-11 (CHRF288-11; [14])	average effective concentration, CMS (CMS [1]; [15])	average effective concentration, CMK (CMK [2]; [16])	average effective concentration, ML-2 (ML2; [16])	average effective concentration, MV4-11 (MV4-11 [4]; [16])	average effective concentration, U937 (U937 [3]; [18])	average effective concentration, M07e (M07e; [19])	also measured
O=C(CCCCCN1C(=O)c2cccc3cccc(c23)C1=O)NO	–	–	–	–	–	–	–	pEC50 (CHRF288-11; [9]): 5.77; pEC50 (CMS [1]; [10]): 6.22; pEC50 (CMK [2]; Homo sapiens, secondary high-throughput screen, read-out: average effective concentration, CMK): 6.70; pEC50 (ML2; [11]): 5.39; pEC50 (M07e; [12]): 6.48; pEC50 (U937 [3]; [13]): 6.17
C=C1C(=O)O[C@@H](CCC)[C@@H]1C(=O)O (racemic) [BUTYROLACTONE 3]	Inactive	Inactive	Inactive	Inactive	Inactive	Inactive	–	average effective concentration, M07e (M07e; [17]): Inactive
O=c1[nH]c2ccccc2c2ccccc12 [6(5H)-PHENANTHRIDINONE]	–	Inactive	Inactive	–	Inactive	Inactive	Inactive	–
Cc1noc(-c2ccc(-c3ccc(CC(=O)O)cc3)cc2)c1NC(=O)O[C@H](C)c1ccccc1Cl [AM-966]	Inactive	Inactive	Inactive	Inactive	Inactive	Inactive	Inactive	–
CC(C)(O)[C@@H]1CC[C@](C)([C@H]2[C@@H](O)C[C@@]3(C)[C@@H]4C[C@H](O[C@@H]5O[C@H](CO)[C@@H](O)[C@H](O)[C@H]5O)[C@H]5C(C)(C)[C@@H](O[C@@H]6OC[C@@H](O)[C@H](O)[C@H]6O)CC[C@@]56C[C@@]46CC[C@]23C)O1 [ASTRAGALOSIDE IV]	–	Inactive	Inactive	–	Inactive	Inactive	Inactive	–
C/C(=C\C(=O)Nc1ccccc1C(=O)O)c1ccc2ccccc2c1 [BIBR-1532]	–	Inactive	Inactive	–	Inactive	Inactive	Inactive	–
CC(C)Oc1ccc(-c2cnc3c(-c4ccnc5ccccc45)cnn3c2)cc1 [DMH-1]	Inactive	Inactive	Inactive	Inactive	Inactive	Inactive	Inactive	–
O=C1NCCc2c(OCCCCN3CCCCC3)cccc21 [DPQ]	Inactive	Inactive	Inactive	Inactive	Inactive	Inactive	Inactive	–
C=C(C)[C@@H](CC=C(C)C)C[C@@]12C[C@@H](CC=C(C)C)C(C)(C)[C@@](CC=C(C)C)(C(=O)C(C(=O)c3ccc(O)c(O)c3)=C1O)C2=O [GARCINOL]	–	–	–	–	–	–	–	pEC50 (MOLM-13): 5.29; pEC50 (CHRF288-11; [9]): 5.24; pEC50 (MV4-11 [5]): < 5.00; pEC50 (ML2; [11]): 5.27; pEC50 (CMK [6]): < 5.00; pEC50 (M07e; [20]): < 5.00; pEC50 (U937 [7]): < 5.00; pEC50 (CMS [8]): < 5.00
COC1=C2C[C@@H](C)C[C@H](OC)[C@H](O)[C@@H](C)/C=C(\C)[C@H](OC(N)=O)[C@@H](OC)/C=C\C=C(/C)C(=O)NC(=CC1=O)C2=O [GELDANOMYCIN]	Inactive	Inactive	Inactive	–	–	–	Inactive	–
COC(=O)[C@H](CC(C)C)NC(=O)c1ccc(NC[C@@H](N)CS)cc1-c1cccc2ccccc12 [GGTI 298]	Inactive	Inactive	Inactive	Inactive	–	–	Inactive	–
COC(=O)[C@H](CC(C)C)NC(=O)c1ccc(NCc2cnc[nH]2)cc1-c1cccc2ccccc12 [GGTI-2147]	Inactive	Inactive	Inactive	Inactive	Inactive	Inactive	Inactive	–
O=C(CCCCCCSc1ccc2ccccc2c1)NO [HNHA]	–	Inactive	Inactive	–	Inactive	Inactive	Inactive	pEC50 (ML2; [21]): 5.07
O=C(c1ccc(Cl)cc1Cl)n1nnc2ccccc21 [ITSA1]	–	Inactive	Inactive	–	Inactive	Inactive	Inactive	–
CCc1c(O)cc(O)c(C(=O)c2ccc(OCCN3CCOCC3)c(OC)c2)c1CC(=O)N(CCOC)CCOC.Cl [KW-2478]	–	Inactive	–	–	–	Inactive	Inactive	–
Nc1ncnc2c1ncn2[C@@H]1C=C(CO)[C@@H](O)[C@H]1O [NEPLANOCIN A]	–	Inactive	–	–	Inactive	–	–	average effective concentration, M07e (M07e; [17]): Inactive
COc1ccc(-c2ccc3ncc4c(c3c2)n(-c2ccc(N3CCNCC3)c(C(F)(F)F)c2)c(=O)n4C)cn1 [NVP-BGT226, reference compound]	–	–	–	–	–	–	–	pEC50 (CHRF288-11; [9]): 7.26; pEC50 (CHRF288-11; secondary HTS, 72 h, average of triplicate, read-out: EC50 CHRF288-11): 7.30; pEC50 (CMS [1]; Homo sapiens, HTS, 72 h, read-out: EC50 CMS): 8.00; pEC50 (CMS [1]; Homo sapiens, HTS, read-out: average effective concentration, CMS): 7.85; pEC50 (CMK [2]; Homo sapiens, 72 h, read-out: EC50 CMK): 7.22; pEC50 (CMK [2]; Homo sapiens, read-out: average effective concentration, CMK): 7.20; pEC50 (ML2; Homo sapiens, secondary HTS, 72 h, average of triplicate, read-out: EC50 ML2): 6.64; pEC50 (ML2; [11]): 6.64; pEC50 (MV4-11 [4]; secondary HTS, 72 h, average of triplicate, read-out: EC50 MV4-11): 7.30; pEC50 (MV4-11 [4]; secondary high-throughput screen, read-out: average effective concentration, MV4-11): 7.30; pEC50 (M07e; Homo sapiens, M-07e, secondary HTS, 72 h, average of triplicate, read-out: EC50 M07e): 6.60; pEC50 (M07e; [12]): 6.60; pEC50 (U937 [3]; Homo sapiens, U-937, secondary HTS, 72 h, average of triplicate, read-out: EC50 U937): 7.10; pEC50 (U937 [3]; [13]): 7.10
Oc1cccc(-c2nc(N3CCOCC3)c3oc4ncccc4c3n2)c1 [PIK 103]	Inactive	Inactive	–	Inactive	–	–	Inactive	–
C[S+]([O-])CCCCN=C=S (centres unmarked) [SULFORAPHANE]	–	–	–	–	–	–	–	pEC50 (CHRF288-11; [9]): < 5.00; pEC50 (CMS [1]; [10]): < 5.00; pEC50 (ML2; [11]): < 5.00; pEC50 (M07e; [12]): < 5.00; pEC50 (U937 [3]; [13]): < 5.00
Cc1cc(C(C)Nc2ccccc2)c2nc(N3CCOCC3)cc(=O)n2c1 (centres unmarked) [TGX-221]	Inactive	Inactive	–	Inactive	–	Inactive	Inactive	–
O=C(CCCCCCC(=O)Nc1ccc([C@H]2O[C@@H](CSc3nc(-c4ccccc4)c(-c4ccccc4)o3)C[C@@H](c3ccc(CO)cc3)O2)cc1)NO [TUBACIN]	–	–	–	–	–	–	–	pEC50 (MOLM-13): < 5.00; pEC50 (CHRF288-11; [9]): < 5.00; pEC50 (MV4-11 [5]): < 5.00; pEC50 (ML2; [11]): < 5.00; pEC50 (CMK [6]): < 5.00; pEC50 (M07e; [20]): 5.60; pEC50 (U937 [7]): < 5.00; pEC50 (CMS [8]): < 5.00
EVODIAMINE	–	–	–	–	–	–	–	pEC50 (CMS [1]; secondary high-throughput screen, CMS, read-out: average effective concentration, CMS): 5.82; pEC50 (CMK [2]; secondary high-throughput screen, read-out: average effective concentration, CMK): 6.52; pEC50 (ML2; [21]): 6.35; pEC50 (M07e; secondary high-throughput screen, […], read-out: average effective concentration, M07e): 5.36; pEC50 (U937 [3]; secondary high-throughput screen, U937, read-out: average effective concentration, U937): 5.68
